Laboratory results published in US20240226115A1, “AXL INHIBITOR COMPOUNDS” (ARCUS BIOSCIENCES, INC., priority 2021, published 2024).

Biological target: T1, recombinant human TYRO3 (Homo sapiens, UniProt Q06418)
T1 construct: purchased Invitrogen
T1 sequence (Q06418 41-890): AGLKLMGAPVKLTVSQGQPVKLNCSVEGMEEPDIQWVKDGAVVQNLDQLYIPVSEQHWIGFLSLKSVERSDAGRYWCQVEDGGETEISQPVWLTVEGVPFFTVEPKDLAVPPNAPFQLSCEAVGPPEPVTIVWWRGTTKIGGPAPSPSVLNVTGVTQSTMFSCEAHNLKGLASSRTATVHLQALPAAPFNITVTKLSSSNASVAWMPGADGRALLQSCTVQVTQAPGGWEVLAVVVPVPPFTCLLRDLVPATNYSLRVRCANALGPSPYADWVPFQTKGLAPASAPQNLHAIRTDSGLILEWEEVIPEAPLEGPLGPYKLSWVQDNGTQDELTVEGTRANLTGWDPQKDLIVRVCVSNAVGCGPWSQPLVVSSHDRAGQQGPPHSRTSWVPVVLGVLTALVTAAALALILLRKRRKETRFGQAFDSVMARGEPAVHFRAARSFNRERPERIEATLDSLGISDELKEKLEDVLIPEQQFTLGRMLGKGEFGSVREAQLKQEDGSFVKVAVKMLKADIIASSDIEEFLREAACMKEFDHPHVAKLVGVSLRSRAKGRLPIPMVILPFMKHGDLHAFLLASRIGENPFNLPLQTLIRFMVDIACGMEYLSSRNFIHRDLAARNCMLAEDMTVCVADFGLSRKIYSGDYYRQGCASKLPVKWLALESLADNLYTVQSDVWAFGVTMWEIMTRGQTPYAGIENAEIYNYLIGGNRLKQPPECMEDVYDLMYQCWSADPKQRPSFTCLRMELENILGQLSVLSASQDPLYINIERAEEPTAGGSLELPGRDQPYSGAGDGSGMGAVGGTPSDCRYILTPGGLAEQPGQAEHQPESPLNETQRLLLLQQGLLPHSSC
Assay: HTRF KinEASE-TK biochemical potency, TYRO3
Conditions: 1 nM TYRO3, 700 μM ATP
Outline: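 Enzyme preincubated with compound 1 h at RT; final 5 nM AXL or 1 nM TYRO3/MER, 800 nM TK substrate-biotin, 700 μM ATP, HEPES pH 7.4, MgCl2, 1% DMSO, 2 h at RT. HTRF 665/620 ratio read after streptavidin-XL665/cryptate antibody detection; percent activity relative to DMSO and pre-stopped controls.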

Structure (SMILES) | IC50
O=C1NCCOc2cc(-c3n[nH]c4ncc(-c5ccc6c(c5)CCC(NC5CCCC5)CC6)cc34)ccc21 (stereo not shown) [Example 42, 8-{5-[7-(Cyclopentylamino)-6,7,8,9-tetrahydro-5H-benzo[7]annulen-2-yl]-1H-pyrazolo[3,4-b]pyridin-3-yl}-2,3,4,5-tetrahydro-1,4-benzoxazepin-5-one] | < 100 nM
C[C@H]1CCCN1C1CCc2ccc(-c3cnc4[nH]nc(-c5ccc6c(c5)OCCNC6=O)c4c3)cc2CC1 (stereo partly drawn) [Example 43, 8-(5-{7-[(2S)-2-Methylpyrrolidin-1-yl]-6,7,8,9-tetrahydro-5H-benzo[7]annulen-2-yl}-1H-pyrazolo[3,4-b]pyridin-3-yl)-2,3,4,5-tetrahydro-1,4-benzoxazepin-5-one] | < 100 nM
C[C@@H]1CCCN1C1CCc2ccc(-c3cnc4[nH]nc(-c5ccc6c(c5)OCCNC6=O)c4c3)cc2CC1 (stereo partly drawn) [Example 44, 8-(5-{7-[(2R)-2-Methylpyrrolidin-1-yl]-6,7,8,9-tetrahydro-5H-benzo[7]annulen-2-yl}-1H-pyrazolo[3,4-b]pyridin-3-yl)-2,3,4,5-tetrahydro-1,4-benzoxazepin-5-one] | < 100 nM
O=C1NCCOc2cc(-c3n[nH]c4ncc(-c5ccc6c(c5)CCC(N[C@H]5CCOC5)CC6)cc34)ccc21 (stereo partly drawn) [Example 45, 8-[5-(7-{[(3S)—Oxolan-3-yl]amino}-6,7,8,9-tetrahydro-5H-benzo[7]annulen-2-yl)-1H-pyrazolo[3,4-b]pyridin-3-yl]-2,3,4,5-tetrahydro-1,4-benzoxazepin-5-one] | < 100 nM
O=C1NCCOc2cc(-c3n[nH]c4ncc(-c5ccc6c(c5)CCC(N[C@@H]5CCOC5)CC6)cc34)ccc21 (stereo partly drawn) [Example 46, 8-[5-(7-{[(3R)—Oxolan-3-yl]amino}-6,7,8,9-tetrahydro-5H-benzo[7]annulen-2-yl)-1H-pyrazolo[3,4-b]pyridin-3-yl]-2,3,4,5-tetrahydro-1,4-benzoxazepin-5-one] | < 100 nM
O=C1NCCOc2cc(-c3n[nH]c4ncc(-c5ccc6c(c5)CCC(N5CCOCC5)CC6)cc34)ccc21 (stereo not shown) [Example 47, 8-{5-[7-(Morpholin-4-yl)-6,7,8,9-tetrahydro-5H-benzo[7]annulen-2-yl]-1H-pyrazolo[3,4-b]pyridin-3-yl}-2,3,4,5-tetrahydro-1,4-benzoxazepin-5-one] | < 100 nM
O=C1NCCOc2cc(-c3n[nH]c4ncc(-c5ccc6c(c5)CCC(N5CCNCC5)CC6)cc34)ccc21 (stereo not shown) [Example 48, 8-{5-[7-(Piperazin-1-yl)-6,7,8,9-tetrahydro-5H-benzo[7]annulen-2-yl]-1H-pyrazolo[3,4-b]pyridin-3-yl}-2,3,4,5-tetrahydro-1,4-benzoxazepin-5-one] | < 100 nM
O=C1NCCOc2cc(-c3n[nH]c4ncc(-c5ccc6c(c5)CCC(N5CCC[C@@H]5CO)CC6)cc34)ccc21 (stereo partly drawn) [Example 49, 8-(5-{7-[(2R)-2-(Hydroxymethyl)pyrrolidin-1-yl]-6,7,8,9-tetrahydro-5H-benzo[7]annulen-2-yl}-1H-pyrazolo[3,4-b]pyridin-3-yl)-2,3,4,5-tetrahydro-1,4-benzoxazepin-5-one] | < 100 nM
O=C1NCCOc2cc(-c3n[nH]c4ncc(-c5ccc6c(c5)CCC(N5CCC[C@H]5CO)CC6)cc34)ccc21 (stereo partly drawn) [Example 50, 8-(5-{7-[(2S)-2-(Hydroxymethyl)pyrrolidin-1-yl]-6,7,8,9-tetrahydro-5H-benzo[7]annulen-2-yl}-1H-pyrazolo[3,4-b]pyridin-3-yl)-2,3,4,5-tetrahydro-1,4-benzoxazepin-5-one] | < 100 nM
O=C1NCCOc2cc(-c3n[nH]c4ncc(-c5ccc6c(c5)CCC(N5CC[C@@H](O)C5)CC6)cc34)ccc21 (stereo partly drawn) [Example 51, 8-(5-(7-((R)-3-Hydroxypyrrolidin-1-yl)-6,7,8,9-tetrahydro-5H-benzo[7]annulen-2-yl)-1H-pyrazolo[3,4-b]pyridin-3-yl)-3,4-dihydrobenzo[f][1,4]oxazepin-5(2H)-one] | < 100 nM
O=C1NCCOc2cc(-c3n[nH]c4ncc(-c5ccc6c(c5)CCC(N5CCC5)CC6)cc34)ccc21 (stereo not shown) [Example 52, 8-(5-(7-(Azetidin-1-yl)-6,7,8,9-tetrahydro-5H-benzo[7]annulen-2-yl)-1H-pyrazolo[3,4-b]pyridin-3-yl)-3,4-dihydrobenzo[f][1,4]oxazepin-5(2H)-one] | < 100 nM
O=C1NCCOc2cc(-c3n[nH]c4ncc(-c5ccc6c(c5)CCNCC6)cc34)ccc21 [Example 53, 8-(5-(2,3,4,5-Tetrahydro-1H-benzo[d]azepin-7-yl)-1H-pyrazolo[3,4-b]pyridin-3-yl)-3,4-dihydrobenzo[f][1,4]oxazepin-5(2H)-one] | < 100 nM
O=C1NCCOc2cc(-c3n[nH]c4ncc(-c5ccc6c(c5)CCNC6)cc34)ccc21 [Example 54, 8-(5-(1,2,3,4-Tetrahydroisoquinolin-6-yl)-1H-pyrazolo[3,4-b]pyridin-3-yl)-3,4-dihydrobenzo[f][1,4]oxazepin-5(2H)-one] | < 100 nM
O=C1NCCOc2cc(-c3n[nH]c4ncc(-c5ccc6c(c5)CNCC6)cc34)ccc21 [Example 55, 8-(5-(1,2,3,4-Tetrahydroisoquinolin-7-yl)-1H-pyrazolo[3,4-b]pyridin-3-yl)-3,4-dihydrobenzo[f][1,4]oxazepin-5(2H)-one] | < 100 nM
C[C@@H]1CCCN1C1CCc2cc(F)c(-c3cnc4[nH]nc(-c5ccc6c(c5)OCCNC6=O)c4c3)cc2CC1 (stereo partly drawn) [Example 58, 8-(5-{3-Fluoro-7-[(2R)-2-methylpyrrolidin-1-yl]-6,7,8,9-tetrahydro-5H-benzo[7]annulen-2-yl}-1H-pyrazolo[3,4-b]pyridin-3-yl)-2,3,4,5-tetrahydro-1,4-benzoxazepin-5-one] | < 100 nM
C[C@@H]1CNC(=O)c2ccc(-c3n[nH]c4ncc(-c5ccc6c(c5)CCC(N5CCC[C@H]5C)CC6)cc34)cc2O1 (stereo partly drawn) [Example 59, (2R)-2-Methyl-8-(5-{7-[(2R)-2-methylpyrrolidin-1-yl]-6,7,8,9-tetrahydro-5H-benzo[7]annulen-2-yl}-1H-pyrazolo[3,4-b]pyridin-3-yl)-2,3,4,5-tetrahydro-1,4-benzoxazepin-5-one] | < 100 nM
C[C@@H]1CCCN1C1CCc2ccc(-c3cnc4[nH]nc(-c5ccc6c(c5F)OCCNC6=O)c4c3)cc2CC1 (stereo partly drawn) [Example 60, 9-Fluoro-8-(5-{7-[(2R)-2-methylpyrrolidin-1-yl]-6,7,8,9-tetrahydro-5H-benzo[7]annulen-2-yl}-1H-pyrazolo[3,4-b]pyridin-3-yl)-2,3,4,5-tetrahydro-1,4-benzoxazepin-5-one] | < 100 nM
C[C@@H]1CCCN1C1CCc2ccc(-c3cnc4[nH]nc(-c5cc6c(cc5F)C(=O)NCCO6)c4c3)cc2CC1 (stereo partly drawn) [Example 61, 7-Fluoro-8-(5-{7-[(2R)-2-methylpyrrolidin-1-yl]-6,7,8,9-tetrahydro-5H-benzo[7]annulen-2-yl}-1H-pyrazolo[3,4-b]pyridin-3-yl)-2,3,4,5-tetrahydro-1,4-benzoxazepin-5-one] | < 100 nM
C[C@@H]1CCCN1C1CCc2ccc(-c3cnc4[nH]nc(-c5ccc6c(c5)O[C@@H](C)CNC6=O)c4c3)cc2CC1 (stereo partly drawn) [Example 62, (2S)-2-Methyl-8-(5-{7-[(2R)-2-methylpyrrolidin-1-yl]-6,7,8,9-tetrahydro-5H-benzo[7]annulen-2-yl}-1H-pyrazolo[3,4-b]pyridin-3-yl)-2,3,4,5-tetrahydro-1,4-benzoxazepin-5-one] | < 100 nM
